Target: T1, KRAS G12D:RAF1 protein interaction [KRAS G12D:RAF1蛋白相互作用] (Homo sapiens, UniProt P01116, G12D)
T1 construct: purchased Cisbio 63ADK000CB21PEG
Assay: Inhibition of the KRAS G12D:RAF1 protein interaction (TR-FRET binding assay)
Conditions: in vitro, 10000nM-0.1nM, 4 h at room temperature

T1 sequence (P01116 1-188 isoform P01116-2 G12D): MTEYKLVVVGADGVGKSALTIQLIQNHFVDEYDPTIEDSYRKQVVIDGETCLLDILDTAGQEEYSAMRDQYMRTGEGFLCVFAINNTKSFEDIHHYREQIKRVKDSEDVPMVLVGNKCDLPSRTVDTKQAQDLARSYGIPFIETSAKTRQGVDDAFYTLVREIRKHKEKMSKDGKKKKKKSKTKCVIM

Row | Structure (SMILES) | IC50
1 | OCCN1C2CCC1CN(c1nc(OC[C@@]34CCCN3C[C@H](F)C4)nc3c(F)c(-c4cc(O)cc5cccc(F)c45)ncc13)C2 [实施例2, 5-fluoro-4-(8-fluoro-2-(((2R,7aS)-2-fluorotetrahydro-1H-pyrrolizin-7a(5H)-yl)methoxy)-4-(8-(2-hydroxyethyl)-3,8-diazabicyclo[3.2.1]octan-3-yl)pyrido[4,3-d]pyrimidin-7-yl)naphthalen-2-ol] | 189 nM
2 | O=C([C@H]1CCCN1)N1C2CCC1CN(c1nc(OC[C@@]34CCCN3C[C@H](F)C4)nc3c(F)c(-c4cc(O)cc5cccc(F)c45)ncc13)C2 [实施例3, 4-(8-(D-prolyl)-3,8-diazabicyclo[3.2.1]octan-3-yl)-8-fluoro-7-(8-fluoro-3-hydroxynaphthalen-1-yl)-2-(((2R,7aS)-2-fluorotetrahydro-1H-pyrrolizin-7a(5H)-yl)methoxy)pyrido[4,3-d]pyrimidine] | 114 nM

Reference: CN116323625A, “杂环类衍生物、其制备方法及其医药上的用途” (Zhejiang Hisun Pharmaceutical Co Ltd, priority 2021, dated 2023)
